Laboratory results as given in patent publication US7932420B2, “Sulfonamides” (Allergan, Inc., priority 2005, dated 2011).

Assays:
hEP2 [1] = target: T1, hEP2 (Homo sapiens, UniProt P43116); assay: in-vitro activity at prostaglandin receptor (fhEP2); assay type: cell-based; conditions: functional, human EP2
hEP2 [2] = target: T1, hEP2; assay: in-vitro binding to prostaglandin receptor (bhEP2); conditions: human EP2
[3] = test system: EP2 and EP4 receptors as compared to the FP, EP1, TP, IP and DP receptors; assay: in-vitro assay for binding to and activity at prostaglandin receptors (selectivity)
hEP4 = hEP4 (Homo sapiens, UniProt P35408); assay: in-vitro binding to prostaglandin receptor (bhEP4); conditions: human EP4
hEP4, sequence (P35408 whole entry): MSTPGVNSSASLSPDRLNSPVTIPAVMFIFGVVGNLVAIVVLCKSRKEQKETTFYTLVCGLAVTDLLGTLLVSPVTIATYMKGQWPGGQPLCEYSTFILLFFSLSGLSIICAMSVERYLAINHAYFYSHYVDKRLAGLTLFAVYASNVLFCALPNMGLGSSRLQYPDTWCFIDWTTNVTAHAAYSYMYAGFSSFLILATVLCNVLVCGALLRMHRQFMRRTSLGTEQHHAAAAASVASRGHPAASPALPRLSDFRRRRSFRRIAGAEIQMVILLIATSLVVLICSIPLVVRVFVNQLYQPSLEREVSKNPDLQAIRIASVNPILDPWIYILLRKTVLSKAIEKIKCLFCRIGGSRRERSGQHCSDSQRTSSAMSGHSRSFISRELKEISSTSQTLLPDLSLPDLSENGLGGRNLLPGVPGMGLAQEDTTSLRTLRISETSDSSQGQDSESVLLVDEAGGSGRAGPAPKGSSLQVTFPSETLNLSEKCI

T1 sequence (P43116 whole entry): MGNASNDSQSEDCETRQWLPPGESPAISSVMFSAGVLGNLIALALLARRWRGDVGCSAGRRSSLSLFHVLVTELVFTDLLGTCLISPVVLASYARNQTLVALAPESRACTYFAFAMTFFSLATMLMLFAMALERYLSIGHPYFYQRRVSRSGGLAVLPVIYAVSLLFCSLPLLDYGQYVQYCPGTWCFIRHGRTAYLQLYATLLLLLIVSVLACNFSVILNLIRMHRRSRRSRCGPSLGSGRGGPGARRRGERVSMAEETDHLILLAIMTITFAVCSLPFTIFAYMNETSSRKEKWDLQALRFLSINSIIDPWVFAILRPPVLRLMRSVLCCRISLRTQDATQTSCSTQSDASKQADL

fhEP2 (hEP2 [1]): 248 | bhEP2 (hEP2 [2]): 5560 | selectivity among prostaglandin receptors [3]: selective at the EP2 and EP4 receptors | bhEP4 (hEP4): 50K
SMILES: CCCC1(C(O)C/C=C/CN(CCCCCCC(=O)O)S(C)(=O)=O)CCC1 (stereo not shown) [Example 10, 7-[[5-Hydroxy-5-(1-propylcyclobutyl)pent-2-enyl]methanesulfonylamino]heptanoic acid]
